Blank lines part the entries; values can stand above or below the compound they belong to.
Experiments:
[1] = Selectivity index, ratio of CC50 for BALB/C Mus musculus (mouse) lymph node cells to IC50 for conA-induced BALB/C lymph node cells; format: functional
[2] = Immunosuppressive activity in BALB/C Mus musculus (mouse) lymph node cells assessed as inhibition of conA-induced proliferation incubated at 24 hr post conA-challenge measured after 72 hr by MTT assay; format: functional
[3] = Cytotoxicity against BALB/C Mus musculus (mouse) lymph node cells after 24 hr by MTT assay; format: cell-based
[4] = target: Phosphatidylinositol 4,5-bisphosphate 3-kinase catalytic subunit gamma isoform (Homo sapiens, UniProt P48736); assay: Inhibition of PI3Kgamma (unknown origin) using [33gammaP]ATP and phosphotidylinositol as substrate by scintillation proximity assay
Sequence of Phosphatidylinositol 4,5-bisphosphate 3-kinase catalytic subunit gamma isoform (P48736 whole entry, canonical isoform): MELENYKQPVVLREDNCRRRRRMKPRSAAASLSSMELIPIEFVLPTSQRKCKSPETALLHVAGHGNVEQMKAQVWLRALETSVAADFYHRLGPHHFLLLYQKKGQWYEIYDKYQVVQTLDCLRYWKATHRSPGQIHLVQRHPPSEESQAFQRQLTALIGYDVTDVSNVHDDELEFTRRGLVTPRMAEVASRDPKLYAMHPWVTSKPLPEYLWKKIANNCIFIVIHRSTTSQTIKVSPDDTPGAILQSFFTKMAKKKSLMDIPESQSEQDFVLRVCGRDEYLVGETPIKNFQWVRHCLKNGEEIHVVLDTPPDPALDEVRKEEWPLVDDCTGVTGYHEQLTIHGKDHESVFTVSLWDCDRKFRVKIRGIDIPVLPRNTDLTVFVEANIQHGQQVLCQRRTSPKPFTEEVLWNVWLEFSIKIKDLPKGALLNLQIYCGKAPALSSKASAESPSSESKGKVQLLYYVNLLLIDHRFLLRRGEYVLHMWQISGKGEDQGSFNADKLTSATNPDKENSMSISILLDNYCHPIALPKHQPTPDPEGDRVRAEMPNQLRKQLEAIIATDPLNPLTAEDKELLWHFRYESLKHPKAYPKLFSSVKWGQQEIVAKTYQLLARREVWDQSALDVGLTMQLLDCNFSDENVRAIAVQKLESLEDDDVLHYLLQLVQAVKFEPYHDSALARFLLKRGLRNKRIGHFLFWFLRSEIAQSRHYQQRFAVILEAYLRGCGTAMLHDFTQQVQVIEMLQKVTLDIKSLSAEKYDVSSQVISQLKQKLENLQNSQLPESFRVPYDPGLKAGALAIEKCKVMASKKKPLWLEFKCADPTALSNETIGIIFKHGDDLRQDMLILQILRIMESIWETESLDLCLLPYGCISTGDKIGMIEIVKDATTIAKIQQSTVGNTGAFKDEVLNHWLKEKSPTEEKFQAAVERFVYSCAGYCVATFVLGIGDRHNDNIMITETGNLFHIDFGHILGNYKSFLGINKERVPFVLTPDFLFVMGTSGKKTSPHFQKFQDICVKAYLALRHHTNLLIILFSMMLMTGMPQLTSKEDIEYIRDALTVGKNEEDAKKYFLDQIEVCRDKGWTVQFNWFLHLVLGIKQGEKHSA

[5] = target: Phosphatidylinositol 4,5-bisphosphate 3-kinase catalytic subunit gamma isoform (Mus musculus) (UniProt Q9JHG7); assay: Inhibition of PI3Kgamma-mediated AKT Ser473 phosphorylation in ConA-induced BALB/C Mus musculus (mouse) lymph node cells after 24 hr by Western blot analysis
Sequence of Phosphatidylinositol 4,5-bisphosphate 3-kinase catalytic subunit gamma isoform (Mus musculus) (Q9JHG7 whole entry, looked up, canonical isoform): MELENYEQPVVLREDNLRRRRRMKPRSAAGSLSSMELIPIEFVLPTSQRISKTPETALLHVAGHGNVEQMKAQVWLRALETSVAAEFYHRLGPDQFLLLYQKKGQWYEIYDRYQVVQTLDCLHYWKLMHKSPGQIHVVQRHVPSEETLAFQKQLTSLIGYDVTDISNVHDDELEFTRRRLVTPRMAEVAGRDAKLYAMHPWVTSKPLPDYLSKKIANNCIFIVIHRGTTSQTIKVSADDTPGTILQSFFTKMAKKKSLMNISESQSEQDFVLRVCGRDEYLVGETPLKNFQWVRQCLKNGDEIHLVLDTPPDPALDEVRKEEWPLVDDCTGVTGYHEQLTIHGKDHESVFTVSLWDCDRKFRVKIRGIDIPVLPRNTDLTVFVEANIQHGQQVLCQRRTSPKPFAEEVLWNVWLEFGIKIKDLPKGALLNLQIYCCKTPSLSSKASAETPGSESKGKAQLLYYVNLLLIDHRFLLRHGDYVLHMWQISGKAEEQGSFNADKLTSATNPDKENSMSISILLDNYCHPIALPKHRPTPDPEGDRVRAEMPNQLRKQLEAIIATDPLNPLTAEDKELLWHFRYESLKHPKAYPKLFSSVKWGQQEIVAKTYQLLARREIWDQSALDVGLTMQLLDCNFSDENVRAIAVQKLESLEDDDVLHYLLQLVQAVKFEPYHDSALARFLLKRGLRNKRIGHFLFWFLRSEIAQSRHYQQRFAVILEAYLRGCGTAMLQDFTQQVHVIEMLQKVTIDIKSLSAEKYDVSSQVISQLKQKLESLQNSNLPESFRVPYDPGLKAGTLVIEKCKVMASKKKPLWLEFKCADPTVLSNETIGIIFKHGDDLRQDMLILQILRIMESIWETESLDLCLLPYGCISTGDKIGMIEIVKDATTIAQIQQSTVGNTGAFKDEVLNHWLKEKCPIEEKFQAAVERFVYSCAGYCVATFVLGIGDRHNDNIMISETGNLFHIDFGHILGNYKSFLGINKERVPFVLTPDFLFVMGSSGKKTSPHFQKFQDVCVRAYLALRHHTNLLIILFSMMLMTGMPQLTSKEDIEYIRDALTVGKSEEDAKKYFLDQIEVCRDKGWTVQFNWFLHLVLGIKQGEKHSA

[6] = species on record: Mus musculus; assay: Induction of apoptosis in ConA-induced BALB/C Mus musculus (mouse) lymph node cells after 24 hr by AnnexinV-FITC based flow cytometric analysis; format: functional
[7] = Ratio of CsA CC50 to compound CC50 for BALB/C Mus musculus (mouse) lymph node cells; format: ADME
[8] = species on record: Mus musculus; assay: Induction of apoptosis in ConA-induced BALB/C Mus musculus (mouse) lymph node cells assessed as caspase3 activation after 24 hr by Western blot analysis; format: functional

Structure (SMILES): Cc1ccc(C(=O)N/N=C/c2ccccc2Cl)c(O)c1
Ratio CC50/IC50 [1]: 6.51
IC50 [2]: 19.2 µM
CC50 at 24 h [3]: 125 µM

IC50 [4]: 3.69 µM
Structure (SMILES): Cc1ccc(C(=O)N/N=C/c2cc(Cl)ccc2O)c(O)c1
Ratio CC50/IC50 [1]: 433.84
IC50 [2]: 1.29 µM
CC50 at 24 h [3]: 560 µM

Structure (SMILES): Cc1ccc(C(=O)N/N=C/c2ccc(N(C)C)cc2)c(O)c1
Ratio CC50/IC50 [1]: <7.32
IC50 [2]: > 100 µM
CC50 at 24 h [3]: 732 µM

Structure (SMILES): Cc1ccc(C(=O)N/N=C/c2ccc(Cl)cc2)c(O)c1
Ratio CC50/IC50 [1]: 9.45
IC50 [2]: 12.3 µM
CC50 at 24 h [3]: 116 µM

Structure (SMILES): Cc1ccc(C(=O)N/N=C/c2ccccc2)c(O)c1
Ratio CC50/IC50 [1]: 10.74
IC50 [2]: 53.9 µM
CC50 at 24 h [3]: 578 µM

Structure (SMILES): Cc1ccc(C(=O)N/N=C/c2ccc(Cl)cc2Cl)c(O)c1
Ratio CC50/IC50 [1]: 29.79
IC50 [2]: 9.78 µM
CC50 at 24 h [3]: 291 µM

Structure (SMILES): Cc1ccc(C(=O)N/N=C/c2ccccc2[N+](=O)[O-])c(O)c1
Ratio CC50/IC50 [1]: <6.44
IC50 [2]: > 100 µM
CC50 at 24 h [3]: 644 µM

Structure (SMILES): Cc1ccc(C(=O)N/N=C/c2cccc(Cl)c2)c(O)c1
Ratio CC50/IC50 [1]: 30.89
IC50 [2]: 24.4 µM
CC50 at 24 h [3]: 636 µM

inhibition [5]: Dose-dependent effect
IC50 [4]: 2.17 µM
Structure (SMILES): Cc1ccc(C(=O)N/N=C/c2ccccc2O)c(O)c1
Activity [6]: Dose-dependent effect
Ratio CC50/IC50 [1]: 745.65
IC50 [2]: 1.02 µM
CC50 at 24 h [3]: 761 µM
selectivity ratio [7]: 50
Activity [8]: Dose-dependent effect

IC50 [4]: 4.81 µM
Structure (SMILES): Cc1ccc(C(=O)N/N=C/c2cc(Cl)cc(Cl)c2O)c(O)c1
Activity [6]: Dose-dependent effect
Ratio CC50/IC50 [1]: 468.72
IC50 [2]: 1.51 µM
CC50 at 24 h [3]: 708 µM

IC50 [4]: 7.12 µM
Structure (SMILES): Cc1ccc(C(=O)N/N=C/c2cc(Br)cc(Br)c2O)c(O)c1
Ratio CC50/IC50 [1]: 484.63
IC50 [2]: 2.02 µM
CC50 at 24 h [3]: 979 µM

Structure (SMILES): Cc1ccc(C(=O)N/N=C/c2ccccc2F)c(O)c1
Ratio CC50/IC50 [1]: 8.61
IC50 [2]: 42.1 µM
CC50 at 24 h [3]: 362 µM

IC50 [4]: 2.6 µM
Structure (SMILES): Cc1ccc(C(=O)N/N=C/c2cc(Br)ccc2O)c(O)c1
Ratio CC50/IC50 [1]: 1371.95
IC50 [2]: 1.09 µM
CC50 at 24 h [3]: 1500 µM

Structure (SMILES): Cc1ccc(C(=O)N/N=C/c2cccc(F)c2)c(O)c1
Ratio CC50/IC50 [1]: 3.72
IC50 [2]: 31.2 µM
CC50 at 24 h [3]: 166 µM

Structure (SMILES): COc1cccc(/C=N/NC(=O)c2ccc(C)cc2O)c1
Ratio CC50/IC50 [1]: 32.64
IC50 [2]: 20.6 µM
CC50 at 24 h [3]: 672 µM

Structure (SMILES): Cc1ccc(C(=O)N/N=C/c2ccc(F)cc2)c(O)c1
Ratio CC50/IC50 [1]: 21.26
IC50 [2]: 26.7 µM
CC50 at 24 h [3]: 568 µM

Structure (SMILES): COc1ccc(/C=N/NC(=O)c2ccc(C)cc2O)cc1
Ratio CC50/IC50 [1]: <7.23
IC50 [2]: > 100 µM
CC50 at 24 h [3]: 723 µM

Structure (SMILES): Cc1ccc(C(=O)N/N=C/c2cccc(Br)c2)c(O)c1
Ratio CC50/IC50 [1]: 4.01
IC50 [2]: 28.3 µM
CC50 at 24 h [3]: 113 µM

Structure (SMILES): Cc1ccc(C(=O)N/N=C/c2ccc([N+](=O)[O-])cc2)c(O)c1
Ratio CC50/IC50 [1]: 30.23
IC50 [2]: 24.3 µM
CC50 at 24 h [3]: 734 µM
